Data reported in ChEMBL document CHEMBL1250441, “Antitumor agents 273. Design and synthesis of N-alkyl-thiocolchicinoids as potential antitumor agents” (Bioorg Med Chem Lett, 2010).
Values after ≈ are worked out from the molar mass of the structure shown.

Columns and labels:
DU-145 [1] = assay: Cytotoxicity against human DU145 cells after 2 days; assay type: functional; details: DU-145, 48 h, read-out: ED50 (the source's name)
KB = assay: Cytotoxicity against human KB cells after 2 days; assay type: functional; details: 48 h, read-out: ED50 (the source's name)
HCT-8 [2] = assay: Cytotoxicity against human HCT8 cells after 2 days; assay type: functional; details: HCT-8, 48 h, read-out: ED50 (the source's name)
SK-BR-3 [3] = assay: Cytotoxicity against human SKBR3 cells after 2 days; assay type: functional; details: SK-BR-3, 48 h, read-out: ED50 (the source's name)
A549 [4] = assay: Cytotoxicity against human A549 cells after 2 days; assay type: functional; details: A549, 48 h, read-out: ED50 (the source's name)
[5] = Inhibition of tubulin assembly
[6] = Cytotoxicity against human KBVIN cells expressing p-glycoprotein after 2 days; assay type: functional; details: 48 h, read-out: ED50 (the source's name)
SK-BR-3 [7] = assay: Selectivity ratio of ED50 for human SKBR3 cells to ED50 for human KB cells; assay type: functional
[8] = Solubility of the compound in water; assay type: physicochemical; details: buffer
A549 [9] = assay: Selectivity ratio of ED50 for human HCT8 cells to ED50 for human A549 cells; assay type: functional
[10] = Selectivity ratio of ED50 for human HCT8 cells to ED50 for human KBVIN cells; assay type: functional
HCT-8 [11] = assay: Selectivity ratio of ED50 for human HCT8 cells to ED50 for human KB cells; assay type: functional
A549 [12] = assay: Selectivity ratio of ED50 for human SKBR3 cells to ED50 for human A549 cells; assay type: functional
SK-BR-3 [13] = assay: Selectivity ratio of ED50 for human SKBR3 cells to ED50 for human DU145 cells; assay type: functional
SK-BR-3 [14] = assay: Selectivity ratio of ED50 for human SKBR3 cells to ED50 for human KBVIN cells; assay type: functional
DU-145 [15] = assay: Selectivity ratio of ED50 for human HCT8 cells to ED50 for human DU145 cells; assay type: functional

`COc1cc2c(c(OC)c1OC)-c1ccc(SC)c(=O)cc1[C@@H](NS(=O)(=O)c1ccccc1[N+](=O)[O-])CC2` gave an EC50 (DU-145 [1]) of 0.0129 µg/mL (≈ 0.0231 µM), an EC50 (KB) of 0.01 µg/mL (≈ 0.0179 µM) and an EC50 (HCT-8 [2]) of 0.027 µg/mL (≈ 0.0483 µM). For the same compound, the EC50 (SK-BR-3 [3]) was 0.0126 µg/mL (≈ 0.0226 µM), the EC50 (A549 [4]) was 0.0209 µg/mL (≈ 0.0374 µM) and the IC50 [5] was 1.1 µM. It also gave an EC50 [6] of 0.112 µg/mL (≈ 0.2 µM).

Work on `CCCN([C@H]1CCc2cc(OC)c(OC)c(OC)c2-c2ccc(SC)c(=O)cc21)S(=O)(=O)c1ccccc1[N+](=O)[O-]` yielded an EC50 (DU-145 [1]) of 0.357 µg/mL (≈ 0.595 µM), an EC50 (KB) of 0.96 µg/mL (≈ 1.6 µM) and an EC50 (HCT-8 [2]) of over 1 µg/mL. For the same compound, the EC50 (SK-BR-3 [3]) was 0.616 µg/mL (≈ 1.02 µM), the EC50 (A549 [4]) was 1.63 µg/mL (≈ 2.72 µM) and the IC50 [5] was over 40 µM. For the same compound, the EC50 [6] was 1.36 µg/mL (≈ 2.27 µM).

In the case of `COc1cc2c(c(OC)c1OC)-c1ccc(SC)c(=O)cc1[C@@H](N(C)S(=O)(=O)c1ccccc1[N+](=O)[O-])CC2`, the EC50 (DU-145 [1]) is reported as 0.0312 µg/mL (≈ 0.0545 µM), the EC50 (KB) is reported as 0.035 µg/mL (≈ 0.0611 µM) and the EC50 (HCT-8 [2]) is reported as 0.12 µg/mL (≈ 0.21 µM). For the same compound, the EC50 (SK-BR-3 [3]) was 0.0285 µg/mL (≈ 0.0498 µM), the EC50 (A549 [4]) was 0.129 µg/mL (≈ 0.225 µM) and the IC50 [5] was 0.92 µM. It also gave an EC50 [6] of 0.153 µg/mL (≈ 0.266 µM).

`CN[C@H]1CCc2cc(OC)c(O)c(OC)c2-c2ccc(SC)c(=O)cc21` gave an EC50 (DU-145 [1]) of 0.505 µg/mL (≈ 1.35 µM), an EC50 (KB) of 0.55 µg/mL (≈ 1.47 µM) and an EC50 (SK-BR-3 [3]) of 0.487 µg/mL (≈ 1.31 µM). It also gave an EC50 (A549 [4]) of 1.55 µg/mL (≈ 4.14 µM), an IC50 [5] of over 40 µM and an EC50 [6] of 1.38 µg/mL (≈ 3.7 µM).

For `CCN[C@H]1CCc2cc(OC)c(OC)c(OC)c2-c2ccc(SC)c(=O)cc21`, the EC50 (DU-145 [1]) was 0.0138 µg/mL (≈ 0.0344 µM), the EC50 (KB) was 0.02 µg/mL (≈ 0.0498 µM) and the EC50 (HCT-8 [2]) was 0.031 µg/mL (≈ 0.0772 µM). It also gave an EC50 (SK-BR-3 [3]) of 0.0141 µg/mL (≈ 0.0351 µM), an EC50 (A549 [4]) of 0.0193 µg/mL (≈ 0.0481 µM) and an IC50 [5] of 5.4 µM. For the same compound, the EC50 [6] was 0.0146 µg/mL (≈ 0.0364 µM).

With `COc1cc2c(c(OC)c1OC)-c1ccc(SC)c(=O)cc1[C@@H](N(C)C)CC2.O=C(O)CCC(=O)O` the “Ratio ED50” value (SK-BR-3 [7]) was 10, the EC50 (DU-145 [1]) was 0.124 µg/mL and the solubility [8] was 103 mg/mL. The “Ratio ED50” value (A549 [9]) was 10, the “Ratio ED50” value [10] was 10 and the “Ratio ED50” value (HCT-8 [11]) was 10. For the same compound, the EC50 (KB) was 0.12 µg/mL, the EC50 (HCT-8 [2]) was 0.022 µg/mL and the “Ratio ED50” value (A549 [12]) was 10. For the same compound, the “Ratio ED50” value (SK-BR-3 [13]) was 10, the “Ratio ED50” value (SK-BR-3 [14]) was 10 and the EC50 (SK-BR-3 [3]) was 0.0129 µg/mL. For the same compound, the “Ratio ED50” value (DU-145 [15]) was 10, the EC50 (A549 [4]) was 0.19 µg/mL and the IC50 [5] was 3.6 µM. It also gave an EC50 [6] of 0.125 µg/mL.

Work on `CN[C@H]1CCc2cc(OC)c(OP(=O)(O)O)c(OC)c2-c2ccc(SC)c(=O)cc21` yielded an EC50 (DU-145 [1]) of 0.157 µg/mL (≈ 0.347 µM), a solubility [8] of 15 mg/mL (≈ 33100 µM) and an EC50 (KB) of 0.25 µg/mL (≈ 0.551 µM). The EC50 (HCT-8 [2]) was over 1 µg/mL, the EC50 (SK-BR-3 [3]) was 0.137 µg/mL (≈ 0.302 µM) and the EC50 (A549 [4]) was 0.533 µg/mL (≈ 1.18 µM). It also gave an IC50 [5] of over 40 µM and an EC50 [6] of 1.71 µg/mL (≈ 3.76 µM).

Work on `COc1cc2c(c(OC)c1OC)-c1ccc(OC)c(=O)cc1[C@@H](NC(C)=O)CC2` [COLCHICINE] yielded an EC50 (DU-145 [1]) of 0.0027 µg/mL (≈ 0.00676 µM), an EC50 (KB) of 0.0038 µg/mL (≈ 0.00951 µM) and an EC50 (HCT-8 [2]) of 0.054 µg/mL (≈ 0.135 µM). The EC50 (SK-BR-3 [3]) was 0.0027 µg/mL (≈ 0.00676 µM), the EC50 (A549 [4]) was 0.0199 µg/mL (≈ 0.0498 µM) and the EC50 [6] was 0.158 µg/mL (≈ 0.395 µM).

In the case of `CN[C@H]1CCc2cc(OC)c(O)c(OC)c2-c2ccc(SC)c(=O)cc21.O=C(O)CCC(=O)O`, the EC50 (DU-145 [1]) is reported as 0.342 µg/mL, the solubility [8] is reported as 95 mg/mL and the EC50 (KB) is reported as 0.35 µg/mL. It also gave an EC50 (HCT-8 [2]) of over 1 µg/mL, an EC50 (SK-BR-3 [3]) of 0.39 µg/mL and an EC50 (A549 [4]) of 1.26 µg/mL. The IC50 [5] was 23 µM and the EC50 [6] was 1.35 µg/mL.

Work on `COc1cc2c(c(OC)c1O)-c1ccc(SC)c(=O)cc1[C@@H](N(C)S(=O)(=O)c1ccccc1[N+](=O)[O-])CC2` yielded an EC50 (DU-145 [1]) of 1.15 µg/mL (≈ 2.06 µM), an EC50 (KB) of 0.72 µg/mL (≈ 1.29 µM) and an EC50 (HCT-8 [2]) of over 1 µg/mL. It also gave an EC50 (SK-BR-3 [3]) of 1.01 µg/mL (≈ 1.81 µM), an EC50 (A549 [4]) of 1.68 µg/mL (≈ 3.01 µM) and an IC50 [5] of 3.6 µM. For the same compound, the EC50 [6] was 1.49 µg/mL (≈ 2.67 µM).

For `CCN([C@H]1CCc2cc(OC)c(OC)c(OC)c2-c2ccc(SC)c(=O)cc21)S(=O)(=O)c1ccccc1[N+](=O)[O-]`, the EC50 (DU-145 [1]) was 0.163 µg/mL (≈ 0.278 µM), the EC50 (KB) was 0.13 µg/mL (≈ 0.222 µM) and the EC50 (HCT-8 [2]) was 0.52 µg/mL (≈ 0.886 µM). For the same compound, the EC50 (SK-BR-3 [3]) was 0.148 µg/mL (≈ 0.253 µM), the EC50 (A549 [4]) was 0.212 µg/mL (≈ 0.361 µM) and the IC50 [5] was 4.2 µM. It also gave an EC50 [6] of 0.174 µg/mL (≈ 0.296 µM).

With `CCN(CC)[C@H]1CCc2cc(OC)c(OC)c(OC)c2-c2ccc(SC)c(=O)cc21.O=C(O)CCC(=O)O` the EC50 (DU-145 [1]) was 0.125 µg/mL, the solubility [8] was 107 mg/mL and the EC50 (KB) was 0.063 µg/mL. For the same compound, the EC50 (HCT-8 [2]) was 0.11 µg/mL, the EC50 (SK-BR-3 [3]) was 0.136 µg/mL and the EC50 (A549 [4]) was 0.181 µg/mL. The IC50 [5] was 16 µM and the EC50 [6] was 0.151 µg/mL.
